Experimental data: ChEMBL document CHEMBL5230160, “Chemotherapeutics for Toxoplasma gondii: Molecular Biotargets, Binding Modes, and Structure-Activity Relationship Investigations” (J Med Chem, 2021)
Values after ≈ are worked out from the molar mass of the structure shown.

Columns and labels:
[1] = system: Toxoplasma gondii; experiment: Antiparasitic activity against Toxoplasma gondii tachyzoites; type: functional, organism-based; conditions: Toxoplasma gondii; for IC50: read-out: IC50; for EC50: read-out: ED50 (the source's name)
[2] = system: Toxoplasma gondii; experiment: Antiparasitic activity against Toxoplasma gondii infected in HFF cells assessed as parasitic growth inhibition incubated for 24 hrs by MTS/PMS assay; type: functional, organism-based
[3] = system: Vero; experiment: Cytotoxicity against African green monkey Vero cells assessed as cell growth inhibition by alamar blue assay; type: functional; conditions: Chlorocebus sabaeus, read-out: ED50 (the source's name)
[4] = system: Toxoplasma gondii; experiment: Antiparasitic activity against Toxoplasma gondii tachyzoites infected in mouse assessed as survival at 10 mg/kg relative to control; type: functional
[5] = Inhibition of Toxoplasma gondii FPPS incubated for 30 mins by scintillation counting analysis
[6] = Selectivity index, ratio of IC50 for cytotoxicity against human HeLa cells to IC50 for antiparasitic activity against Toxoplasma gondii tachyzoites infected in human HeLa cells; type: toxicity, cell-based; conditions: for selectivity ratio: read-out: Ratio IC50
[7] = system: HeLa; experiment: Cytotoxicity against human HeLa cells assessed as cell growth inhibition measured after 24 hrs by MTT assay; type: functional, cell-based
[8] = system: Toxoplasma gondii; experiment: Antiparasitic activity against Toxoplasma gondii tachyzoites infected in human HeLa cells measured after 24 hrs by MTT assay; type: functional, organism-based
[9] = Inhibition of Toxoplasma gondii recombinant ENR in presence of NADH by absorbance based analysis
[10] = system: Toxoplasma gondii; experiment: Antiparasitic activity against Toxoplasma gondii infected in HFF cells by fluorescence based analysis; type: functional, organism-based
[11] = system: Toxoplasma gondii; experiment: Antiparasitic activity against Toxoplasma gondii tachyzoites infected in hTERT cells by fluorescence plate reader assay; type: functional, organism-based; conditions: read-out: ED50 (the source's name)
[12] = Inhibition of Toxoplasma gondii DHFR
[13] = Selectivity ratio of IC50 for inhibition of Toxoplasma gondii FPPS to IC50 for antiparasitic activity against Toxoplasma gondii tachyzoites infected in hTERT cells; type: toxicity, cell-based; conditions: human

CCc1nc(N)nc(N)c1-c1ccc(Cl)cc1 [PYRIMETHAMINE]
IC50 [1]: 453 nM
IC50 [2]: 3.62 µM

N#CSCCOc1ccc(Oc2ccncc2)cc1
EC50 [3]: > 200 µM
EC50 [1]: 7860 nM

N#CSCCOc1ccc(Oc2cccc(Oc3cccc(F)c3)c2)cc1
EC50 [3]: > 50 µM
EC50 [1]: 1630 nM

N#CSCCOc1ccc(Oc2cccc3ccccc23)cc1
EC50 [1]: 2870 nM

C[C@@H](Oc1cc(-c2cnn(C3CCNCC3)c2)cnc1N)c1c(Cl)ccc(F)c1Cl [CRIZOTINIB]
IC50 [1]: 4000 nM

Nc1ncnc2c1ncn2Cc1c(F)cccc1Cl [ARPRINOCID]
survival at 10 mg/kg [4]: 100%
IC50 [1]: 7000 nM

CCCCCCCCNCC(O)(P(=O)(O)O)P(=O)(O)O
IC50 [5]: 39 nM

N#CSCCOc1ccc(Oc2cccc(Oc3ccccc3Cl)c2)cc1
EC50 [3]: > 50 µM
EC50 [1]: 2130 nM

SPIRAMYCIN
Ratio IC50 [6]: 0.72
IC50 ([7]; hela): 189 µM
IC50 ([8]; hela): 262 µM

O=[N+]([O-])c1ccc(Oc2ccc(Cl)cc2O)c(Cl)c1
IC50 [9]: < 20 nM
IC50 [10]: 4 µM

CC(C)=CCC/C(C)=C/CSCC(P(=O)(O)O)P(=O)(O)O
EC50 [11]: > 10 µM

C[C@H]1[C@H](C)CC[C@]2(C(=O)O)CC[C@]3(C)C(=CC[C@@H]4[C@@]5(C)C/C(=C/c6cn(-c7ccccc7Br)nn6)C(=O)C(C)(C)[C@H]5CC[C@]43C)[C@H]12
selectivity ratio [6]: 0.8
IC50 ([7]; Homo sapiens, HeLa, 24 h): 240 µM
IC50 ([8]; Toxoplasma gondii, HeLa, 24 h): 302 µM

N#CSCCOc1cccc2ccccc12
EC50 [3]: > 50 µM
EC50 [1]: 3130 nM

N#Cc1ccccc1CNc1ccc(Oc2ccc(Cl)cc2O)c(Cl)c1
IC50 [9]: 16 nM
IC50 [10]: > 10 µM

CCCCCCCCCCCCCCNCC(P(=O)(O)O)P(=O)(O)O
IC50 [5]: 292 nM

COc1ccc(OC)c(Cc2cnc3nc(N)nc(N)c3c2C)c1 [PIRITREXIM]
IC50 [12]: 17 nM

O=C(Nc1ccc([N+](=O)[O-])cc1Cl)c1cc(Cl)ccc1O [NICLOSAMIDE]
MIC50 [1]: 0.2 µM (≈ 0.0654 µg/mL)

Cc1cc(-n2c(=O)[nH]c(=O)n(C)c2=O)ccc1Oc1ccc(S(=O)(=O)C(F)(F)F)cc1 [PONAZURIL]
survival at 10 mg/kg [4]: 100%
IC50 [1]: 6 nM

CCCCCCCC[S+]([O-])CC(P(=O)(O)O)P(=O)(O)O (stereo not given)
IC50 [5]: 16 nM

Cc1nnsc1C(=O)NNC(=S)Nc1ccc(F)cc1F
IC50 [1]: 92.3 µg/mL

Oc1ccc(Oc2ccc(Cl)cc2O)c(Cl)c1
IC50 [9]: 3 nM
IC50 [10]: 3.1 µM

CCCCCCNCC(O)(P(=O)(O)O)P(=O)(O)O
IC50 [5]: 51 nM

CCCCCCCNCC(O)(P(=O)(O)O)P(=O)(O)O
IC50 [5]: > 1000 nM

CCCCCCCCSCC(P(=O)(O)O)P(=O)(O)O
IC50 [5]: 24 nM
Ratio IC50 [13]: > 1000

CCCCCCCCCNCC(P(=O)(O)O)P(=O)(O)O
IC50 [5]: 440 nM

N#CSCCOc1ccc(Oc2cccc(C(F)(F)F)c2)cc1
EC50 [3]: > 50 µM
EC50 [1]: 1660 nM

CC(=O)O[C@H]1C[C@@]2(C)[C@@H](C[C@@H](O)[C@H]3[C@@]4(C)CC[C@@H](O)[C@@H](C)[C@@H]4CC[C@@]32C)/C1=C(\CCC=C(C)C)C(=O)O [FUSIDIC ACID]
survival at 10 mg/kg [4]: 90%
IC50 [1]: 7000 nM

N#Cc1ccc(Oc2ccc(Cl)cc2O)c(Cl)c1
IC50 [9]: 24 nM

CCCc1ccc(Oc2ccc(N)cc2Cl)c(O)c1
IC50 [9]: < 20 nM
IC50 [10]: 6 µM

CCCCCCCCNCC(F)(P(=O)(O)O)P(=O)(O)O
IC50 [5]: 35 nM

CCCCCCCCCCCNCC(P(=O)(O)O)P(=O)(O)O
IC50 [5]: 868 nM

C[C@H]1[C@H](C)CC[C@]2(C(=O)OCCn3cnnc3-c3ccccc3)CC[C@]3(C)C(=CC[C@@H]4[C@@]5(C)CC[C@H](O)C(C)(C)[C@H]5CC[C@]43C)[C@H]12
selectivity ratio [6]: 1.15
IC50 ([7]; Homo sapiens, HeLa, 24 h): 102 µM
IC50 ([8]; Toxoplasma gondii, HeLa, 24 h): 88 µM

CCCCCCCCCCCCNCC(P(=O)(O)O)P(=O)(O)O
IC50 [5]: 93 nM

N#CSCCOc1ccc2ccccc2c1
EC50 [3]: > 100 µM
EC50 [1]: 3620 nM

COc1cc(-n2cc(/C=C3/C[C@@]4(C)[C@H](CC[C@]5(C)[C@@H]4CC=C4[C@@H]6[C@@H](C)[C@H](C)CC[C@]6(C(=O)O)CC[C@]45C)C(C)(C)C3=O)nn2)cc(OC)c1OC
selectivity ratio [6]: 1.17
IC50 ([7]; Homo sapiens, HeLa, 24 h): 354 µM
IC50 ([8]; Toxoplasma gondii, HeLa, 24 h): 301 µM

COc1ccc(OC)c(CNc2cnc3nc(N)nc(N)c3c2)c1
IC50 [12]: 28 nM

C[C@H]1[C@H](C)CC[C@]2(C(=O)O)CC[C@]3(C)C(=CC[C@@H]4[C@@]5(C)C/C(=C/c6cn(-c7ccccc7I)nn6)C(=O)C(C)(C)[C@H]5CC[C@]43C)[C@H]12
selectivity ratio [6]: 0.84
IC50 ([7]; Homo sapiens, HeLa, 24 h): 230 µM
IC50 ([8]; Toxoplasma gondii, HeLa, 24 h): 274 µM

COc1cc(NCc2ccc3nc(N)nc(N)c3c2C)cc(OC)c1OC [TRIMETREXATE]
IC50 [12]: 1.4 nM

N#CC(c1ccc(Cl)cc1)c1c(Cl)cc(-n2ncc(=O)[nH]c2=O)cc1Cl (stereo not given) [DICLAZURIL]
survival at 10 mg/kg [4]: 100%
IC50 [1]: 6 nM
